How the values were obtained:
[1] = 298.15 K; 101.33 kPa; Liquid; Vibrating tube method
[2] = excess molar enthalpy (molar enthalpy of mixing); xn = mol fraction of the nth substance listed; settings: 101 kPa, Liquid, Flow calorimetry

C=CC(C)(O)CCC=C(C)C (stereo not drawn) [3,7-dimethyl-1,6-octadien-3-ol]
Settings | mass density [kg/m3]
[1] | 857

C=CC(C)(O)CCC=C(C)C (stereo not drawn) [3,7-dimethyl-1,6-octadien-3-ol] + CC(C)O
excess molar enthalpy [kcal/mol], [2]
Settings | 283.15 K | 298.15 K | 313.15 K | 328.15 K
x1 = 0.024 | -0.00789 | -0.00741 | -0.00574 | -0.00191
x1 = 0.048 | -0.011 | -0.0117 | -0.00908 | -0.00239
x1 = 0.097 | -0.0141 | -0.0148 | -0.0115 | -0.000717
x1 = 0.195 | -0.0174 | -0.0174 | -0.0108 | 0.00621
x1 = 0.292 | -0.0186 | -0.0172 | -0.00837 | 0.0131
x1 = 0.392 | -0.0196 | -0.0163 | -0.0055 | 0.0184
x1 = 0.49 | -0.0196 | -0.0134 | -0.00167 | 0.0215
x1 = 0.592 | -0.0174 | -0.00884 | 0.00191 | 0.022
x1 = 0.693 | -0.012 | -0.00287 | 0.00478 | 0.0184
x1 = 0.796 | -0.00454 | 0.00143 | 0.00454 | 0.0131
x1 = 0.894 | 0.000717 | 0.00215 | 0.00167 | 0.00574
x1 = 0.948 | 0.000478 | 0.000717 | 0.000717 | 0.00263

C=CC(C)(O)CCC=C(C)C (stereo not drawn) [3,7-dimethyl-1,6-octadien-3-ol] + CCCCO
excess molar enthalpy [kcal/mol], [2]
Settings | 283.15 K | 298.15 K | 313.15 K | 328.15 K
x1 = 0.042 | -0.00311 | -0.00717 | -0.00717 | -0.00526
x1 = 0.085 | -0.00502 | -0.0143 | -0.0158 | -0.022
x1 = 0.174 | -0.00526 | -0.0227 | -0.0349 | -0.0526
x1 = 0.265 | -0.00287 | -0.0241 | -0.0466 | -0.0724
x1 = 0.359 | -0.000239 | -0.0217 | -0.0514 | -0.082
x1 = 0.457 | 0.00215 | -0.0182 | -0.0509 | -0.0837
x1 = 0.559 | 0.00574 | -0.0136 | -0.0447 | -0.0779
x1 = 0.661 | 0.00956 | -0.00669 | -0.0351 | -0.0624
x1 = 0.771 | 0.0136 | 0.000717 | -0.022 | -0.044
x1 = 0.884 | 0.0141 | 0.00621 | -0.00741 | -0.021
x1 = 0.943 | 0.0105 | 0.00526 | -0.00191 | -0.00884

From the NIST ThermoML archive (doi:10.1021/je200457q)
